Test results as given in patent US20200297621A1, “Topical Compositions for Neuropathic Pain” (GOOD PHARMACEUTICAL DEVELOPMENT COMPANY, LLC, priority 2016, published 2020).
“And” between values parts separate entries of the source, which are not always exact repeats. Equal values may be shown once.

Experiment: Stability testing of the topical gabapentin/ketamine composition
Type: physicochemical
Design: Assay: unit not given beside the values
Conditions: for Assay (avg): avg of the two determinations; for Assay: single determinations

Compound	Assay (avg) (2 wk, 25/60)	Assay (2 wk, 25/60)	Assay (avg) (2 wk, 40/75)	Assay (2 wk, 40/75)	Assay (avg) (t = 0)	Assay (t = 0)	Assay (2 wk, 25/60, acetic acid)	Assay (2 wk, 40/75, acetic acid)	Assay (t = 0, acetic acid)
CNC1(c2ccccc2Cl)CCCCC1=O.Cl (racemic) [Ketamine HCl, (±) 2-(o-chlorophenyl)-2-(methylamino)-cyclohexanone]	105.8	105.9 and 105.7	105.2	105.2	106.3	108.8 and 103.9			
NCC1(CC(=O)O)CCCCC1 [Gabapentin, 1-(aminomethyl)cyclohexane acetic acid]	106.6		105.8		111.3		105.4 and 107.8	106.1 and 105.5	111.9 and 110.7
COC(=O)c1ccc(O)cc1 [Methylparaben]	106.1	108.2 and 104.1	108.1	109.6 and 106.7	112.0	111.1 and 112.9			
